Data as given in patent publication US8846627B2, “Method for treatment of malaria” (The Second Military Medical University, priority 2009, dated 2014).
Read-outs that look alike come from different tables or passages of the source.

Assays:
[1] = test system: chloroquine sensitive (D6) strain of P. falciparum; experiment: In vitro anti-malarial activity assay (plasmodial LDH activity), D6 clone; assay type: cell-based; conditions: Plasmodium falciparum, read-out: P. falciparum (D6 Clone) IC50
Description: (§1) In vitro anti-malarial activity of the representative compounds was determined against chloroquine sensitive (D6) and chloroquine-resistant (W2) strains of P. falciparum.
(§2) The anti-malarial activity was determined by measuring plasmodial LDH activity as described earlier (Jain, M.; Khan, S. I.; Tekwani, B. L.; Jacob, M. R.; Singh, S.; Singh, P. P.; Jain, R. Synthesis, anti-malarial, antileishmanial, and antimicrobial activities of some 8-quinolinamine analogues. Bioorg. Med. Chem. 2005, 13, 4458-4466). A suspension of red blood cells infected with D6 or W2 strains of P. falciparum (200 with 2% parasitemia and 2% hematocrit in RPMI 1640 medium supplemented with 10% human serum and 60 µg/mL Amikacin) was added to the wells of a 96-well plate containing 10 μL of serially diluted test samples. The plate was flushed with a gas mixture of 90% N2, 5% O2, and 5% CO2 and incubated at 37° C. for 72 h in a modular incubation chamber (Billups-Rothenberg, Calif.). Parasitic LDH activity was determined by using Malstat™ reagent (Flow Inc., Portland, Oreg.) according to the procedure of Makler and Hinrichs (M. T. Makler and D. J. Hinrichs, Measurement of the lactate dehydrogenase activity of Plasmodium falciparum as an assessment of parasitemia. J. Am. J. Trop. Med. Hyg. 1993, 48(2):205-210). Briefly, 20 μl, of the incubation mixture was mixed with 100 μL of the Malstat™ reagent and incubated at room temperature for 30 min Twenty microliters of a 1:1 mixture of NBT/PES (Sigma, St. Louis, Mo.) was then added and the plate was further incubated in the dark for 1 h. The reaction was then stopped by the addition of 100 μL of a 5% acetic acid solution. The plate was read at 650 nm. Artemisinin and chloroquine were included in each assay as the drug controls. IC50 values were computed from the dose-response curves. To determine the selectivity index of anti-malarial activity of compounds, their cytotoxicity in vitro to mammalian cells was also determined. The assay was performed in 96-well tissue culture-treated plates as described earlier (J. Mustafa, S. I. Khan, G. Ma, L. A. Walker and I. A. Khan, Synthesis and Anticancer Activities of Fatty Acid Analogs of Podophyllotoxin. Lipids. 2004, 39(2):167-172). Vero cells (monkey kidney fibroblasts) were seeded to the wells of 96-well plate at a density of 25,000 cells/well and incubated for 24 h. Samples at different concentrations were added and plates were again incubated for 48 h. The number of viable cells was determined by Neutral Red assay. IC50 values were obtained from dose-response curves. Doxorubicin was used as a positive control.

[2] = test system: chloroquine-resistant (W2) strain of P. falciparum; experiment: In vitro anti-malarial activity assay (plasmodial LDH activity), W2 clone; assay type: cell-based; conditions: Plasmodium falciparum, read-out: P. falciparum (W2 Clone) IC50
Description: as §1, §2

[3] = test system: Plasmodium berghei (chloroquine sensitive strain); experiment: In vivo anti-malarial activity, 4-day suppressive test in infected mice; conditions: Swiss albino mice; for Day 4 % Suppression / Day 5 % Suppression / Day 6 % Suppression: intragastric
Description: Tests were performed in a 4-day suppressive standard test using the methods of David, Thurston and Peters (David, A. F., Philip, J. R., Simon, L. C., Reto B., and Solomon N. Antimalarial drug discovery: Efficacy models for compound screening. Nature Reviews. 2004; 3: 509-520). The plasmodium species, that is most widely employed in rodent malaria parasite-Plasmodium berghei (chloroquine sensitive strain), was used to infect Swiss albino mice for a fourday suppressive test. The P. berghei was subsequently maintained in the laboratory by serial blood passage from mouse to mouse. For the study, a donor mouse with a rising parasitemia of 20% was sacrificed and its blood was collected in a slightly heparinized syringe from the auxiliary vessels. The blood was diluted with Trisodium Citrate (TC) medium so that each 0.2 ml contained approximately 107 infected red cells. Each animal received inoculums of about […], which is expected to produce a steadily rising infection in mice.
Male Swiss albino mice were used. The mice were allowed to acclimatize to the laboratory environment under a controlled temperature of 20° C. and at optimum humidity for at least three days before being subjected to the experiments. All of the mice were divided into groups of six, and infected with malaria parasites.
The infection of the recipient mice was initiated by needle passage of the above mentioned parasite preparation, from the donor to healthy test animals via an intraperitoneal route. Therefore, P. berghei infected red blood cells were intraperitoneally injected into the mice from the blood diluted with TC medium so that each 0.2 ml had approximately 106-107 infected red cells (parasite per kg of body weight). Each mouse was infected with single inoculums of 0.2 ml blood.
The 4-day procedures were started on Mondays while blood smears for parasitemia were collected on Fridays. The infected mice were weighed, randomly divided into treatment, vehicle and standard drug groups. […] The compounds were administered through intra gastric route using the stomach tube to ensure the safe ingestion of the compounds and the vehicle.
Thin smears of blood films were obtained from the peripheral blood on the tail from each mouse on day four after infection. The smears were placed on microscopic slides, fixed with methanol and stained with Gemsa at pH 7.2, for parasitemia. […] The number of parasitized erythrocytes in each of the 10-50 such fields were counted three times and the average was calculated to give the Parasitemia of each individual animal. Percentage of suppression was calculated by using the following formula. % Suppression=(Parasitemia in negative control−Parasitemia in study group)/Parasitemia in negative control

[4] = biological target: T1, Falcipain-2 protease (FP-2) (Plasmodium falciparum, UniProt Q8I6U4); experiment: Falcipain-2 protease inhibition assay (fluorescence reaction rate); assay type: biochemical; conditions: for inhibition at 10 µM: 10 μM compound, pH 5.5; for IC50: pH 5.5, sigmoidal fit, read-out: IC50 against falcipain-2
T1 construct: The falcipain-2 fragment was amplified by the polymerase chain reaction (PCR); His6 (N-terminal MRGS-His6 supplied by the pQE-30 vector; own knowledge of the vector, consistent with the Ni2+-NTA purification) (N); made in house; host or cells: E. coli M15
T1 sequence (Q8I6U4 244-484): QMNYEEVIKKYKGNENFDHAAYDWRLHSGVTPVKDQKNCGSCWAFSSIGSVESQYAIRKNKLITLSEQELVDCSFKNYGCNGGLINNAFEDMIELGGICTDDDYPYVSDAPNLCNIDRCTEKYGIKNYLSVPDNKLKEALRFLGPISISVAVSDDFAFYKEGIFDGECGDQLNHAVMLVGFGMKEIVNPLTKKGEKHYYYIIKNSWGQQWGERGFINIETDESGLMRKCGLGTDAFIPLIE
Description: (1) Expression and Purification of Falcipain-2 and Refolding of FP-2 Inclusion Bodies Protein
(2) The Determination of the Invention Compounds' Inhibitory Activity Against FP-2
FP-2 protein and test compounds dissolved in DMSO (prepared from EXAMPLES 1-4) were added to 197 μL, buffer, containing 100 mM NaOAc, 10 mM DTT, pH 5.5 (final concentration 10 μg/mL). The test compound were Stenopalustroside A, Stenopalustroside D, Tiliroside, kaempferol 3-O-β-(6″-caffeoylglucoside) and kaempferol 3-(2,4-di-E-p-coumaroyl-rhamnoside), respectively, which final concentration were 10 μM and 0 μM (as negative control). These compounds were incubated for […] and employed MD SpectraMax M5 Microplate Reader to continuous detect the RFU for 15 min, at excitation 355 nm and emission 460 nm Calculate the reaction rate Km, and obtain percentage inhibitory rate of the test compound at 10 μM by the following equation,
The equation is: (Kmof control group−Kmof experimental group)/Kmof control group×100%
Select […] compounds with over 50% inhibitory rate to detect IC50, and utilize the compound solutions prepared from EXAMPLE 1 to EXAMPLE 4, Stenopalustroside A, tiliroside kaempferol 3-O-β-(6″-caffeoylglucoside), and the experimental methods and system followed as EXAMPLE 6. According to FP-2 activity reaction rate Km with compounds at different concentrations, we can calculate the inhibitory rate of compounds against FP-2 at different concentration. The IC50 value was fitted with utilizing the Sigmoidal Equation by Origin software.

[5] = D6, 72 h incubation, LDH readout
[6] = W2, 72 h incubation, LDH readout

Row | Structure (SMILES) | IC50 [1, 5] [µM] | IC50 [2, 6] [µM] | Day 4 % Suppression ([3]; 10 mg/kg daily for 4 days) [%] | Day 5 % Suppression ([3]; 10 mg/kg daily for 4 days) [%] | Day 6 % Suppression ([3]; 10 mg/kg daily for 4 days) [%] | inhibition at 10 µM [4] [%] | IC50 [4] [µM] | Day 4 % Suppression ([3]; 200 mg/kg daily for 4 days) [%] | Day 5 % Suppression ([3]; 200 mg/kg daily for 4 days) [%] | Day 6 % Suppression ([3]; 200 mg/kg daily for 4 days) [%] | Day 4 % Suppression ([3]; 50 mg/kg daily for 4 days) [%] | Day 5 % Suppression ([3]; 50 mg/kg daily for 4 days) [%] | Day 6 % Suppression ([3]; 50 mg/kg daily for 4 days) [%] | Day 4 % Suppression ([3]; 100 mg/kg daily for 4 days) [%] | Day 5 % Suppression ([3]; 100 mg/kg daily for 4 days) [%] | Day 6 % Suppression ([3]; 100 mg/kg daily for 4 days) [%] | Day 5 % Suppression ([3]; 400 mg/kg daily for 4 days) [%] | further results
1 | C[C@@H]1CC[C@H]2[C@@H](C)C(=O)O[C@@H]3O[C@@]4(C)CC[C@@H]1[C@]32OO4 [Artemisinine, reference compound] | < 26.4 | < 26.4 | – | – | – | – | – | – | – | – | – | – | – | – | – | – | – | –
2 | CCN(CC)CCCC(C)Nc1ccnc2cc(Cl)ccc12 (stereo not shown) [Chloroquine, reference compound] | – | – | 100 | 100 | 100 | – | – | – | – | – | – | – | – | – | – | – | – | IC50 ([1]; D6, 72 h): < 26.4 µM; IC50 ([2]; W2, 72 h): 160 µM
3 | O=C(/C=C\c1ccc(O)cc1)OCC1O[C@@H](Oc2c(-c3ccc(O)cc3)oc3cc(O)cc(O)c3c2=O)C(O)[C@H](OC(=O)/C=C\c2ccc(O)cc2)[C@@H]1O (stereo partly shown) [Stenopalustroside A] | 32.8 | 98.6 | – | – | – | 53 | 1.45 | 34.7 | 33.3 | 18.9 | – | – | – | – | – | – | – | –
4 | O=C(/C=C\c1ccc(O)cc1)OCC1O[C@@H](Oc2c(-c3ccc(O)cc3)oc3cc(O)cc(O)c3c2=O)C(O)[C@H](OC(=O)/C=C/c2ccc(O)cc2)[C@@H]1O (stereo partly shown) [Stenopalustroside D] | 68.4 | 165 | 30.4 | 51.5 | 32.4 | 39.4 | – | 43.4 | 42.4 | 37.8 | 60.8 | 63.6 | 58.3 | 56.5 | 60.6 | 45.9 | 24.2 | Day 4 % Suppression ([3]; 400 mg/kg daily for 4 days): 8.6%; Day 6 % Suppression ([3]; 400 mg/kg daily for 4 days): 13.5%; maximum suppression ratio ([3]; maximum over doses and days): 60%
5 | CC1O[C@@H](Oc2c(-c3ccc(O)cc3)oc3cc(O)cc(O)c3c2=O)C(OC(=O)/C=C/c2ccc(O)cc2)C(O)[C@H]1OC(=O)/C=C/c1ccc(O)cc1 (stereo partly shown) [kaempferol 3-(2,4-di-E-p-coumaroyl-rhamnoside)] | 45.1 | 147 | – | – | – | 49.4 | – | – | 9.0 | 5.4 | 34.7 | 24.2 | 29.7 | 13.0 | 21.2 | 24.3 | – | –
6 | O=C(/C=C/c1ccc(O)c(O)c1)OCC1O[C@@H](Oc2c(-c3ccc(O)cc3)oc3cc(O)cc(O)c3c2=O)C(O)C(O)[C@@H]1O (stereo partly drawn) [kaempferol 3-O-β-(6″-caffeoylglucoside)] | 55.8 | 91.3 | 20.6 | 27.2 | 37.8 | 53 | 13.5 | 4.3 | 9.0 | 5.4 | 52.1 | 54.5 | 45.9 | 13.0 | 15.1 | 10.8 | 6.0 | –
